pEC50: −log10 of the molar value. Some results are limits rather than exact numbers.

A word on the pEC50: it is −log10 of the EC50, conventionally taken in molar units.

In this assay the test system is HBV. In words: HepAD38 anti-HBV assay: reduction of viral product accumulation (virion DNA qPCR, HBsAg/HBeAg ELISA). It counts as cell-based. The settings on record: Hepatitis B virus, 120 h; HepAD38 cells; concentration reducing viral product accumulation by 50% relative to no drug controls; harvest five days after compound addition; read-out: HepAD38 EC50. Here is the method:
Methods: HepAD38 cells are maintained as previously reported (Ladner et al, Antimicrob. Agents Chemother. 1997, […], 1715). Briefly, cells are passaged upon attaining confluency in DMEM/F12 media in the presence of 10% FBS, Penn/Strep, 250 μg/mL G418, and 1 μg/ml tetracycline. Novel compounds are screened by first washing cells three times with PBS to remove tetracycline, and plating in 96 well plates at 35,000 cells/well. Compounds dissolved in DMSO are then diluted 1:200 into wells containing cells. Five days after compound addition, material is harvested for analysis. For an extended 8 day analysis, cells are plated and treated as described above, but media and compound are refreshed on d2 and d5 post initial treatment.
On harvest day, virion DNA is obtained by lysing with Sidestep Lysis and Stabilization Buffer and then quantified via quantitative real time PCR. Commercially available ELISA kits are used to quantitate the viral proteins HBsAg (Alpco) or HbeAg (US Biological) by following the manufacturer's recommended protocol after diluting samples to match the linear range of their respective assays. Irrespective of readout, compound concentrations that reduce viral product accumulation in the cell lysates or supernatants by 50% relative to no drug controls (EC50) are reported; EC50 ranges are as follows: A<0.1 μM; B 0.1-0.4 μM; C>0.4 μM.
On the technique in general: Real-time PCR tracks product formation cycle by cycle.
With `O=C(N[C@H]1CC2=C(c3ccn(C(F)F)n3)[C@H](c3ccc(F)cc3Cl)N=C(c3nccs3)N2C1)[C@@H]1CC1c1ccccn1` (relative stereo) [Example 312], the pEC50 was 6.40 to 7.00.
Under `C=CCOC[C@@]1(O)CC2=C(c3ccn(C(F)F)n3)[C@H](c3ccc(F)cc3Cl)N=C(c3nccs3)N2C1` (single isomer, unassigned) [Example 109] stands 6.40 to 7.00; under `COC(=O)c1cccc(S(=O)(=O)N[C@H]2CC3=C(c4ccn(C(F)F)n4)[C@H](c4ccc(F)cc4Cl)N=C(c4nccs4)N3C2)c1` [Example 2], > 7.00; under `COC(=O)c1ccccc1S(=O)(=O)N[C@H]1CC2=C(c3ccn(C(F)F)n3)[C@H](c3ccc(F)cc3Cl)N=C(c3nccs3)N2C1` [Example 4], 6.40 to 7.00.
Under `O=C(O)c1cccc(S(=O)(=O)N[C@H]2CC3=C(c4ccn(C(F)F)n4)[C@H](c4ccc(F)cc4Cl)N=C(c4nccs4)N3C2)c1` [Example 5] stands > 7.00; under `O=C(O)c1ccc(S(=O)(=O)N[C@H]2CC3=C(c4ccn(C(F)F)n4)[C@H](c4ccc(F)cc4Cl)N=C(c4nccs4)N3C2)cc1` [Example 6], > 7.00.
For `O=C(O)c1ccccc1S(=O)(=O)N[C@H]1CC2=C(c3ccn(C(F)F)n3)[C@H](c3ccc(F)cc3Cl)N=C(c3nccs3)N2C1` [Example 7] the value was < 6.40; for `COC(=O)CCS(=O)(=O)N[C@H]1CC2=C(c3ccn(C(F)F)n3)[C@H](c3ccc(F)cc3Cl)N=C(c3nccs3)N2C1` [Example 8], 6.40 to 7.00.
In the case of `COC(=O)CCCS(=O)(=O)N[C@H]1CC2=C(c3ccn(C(F)F)n3)[C@H](c3ccc(F)cc3Cl)N=C(c3nccs3)N2C1` [Example 9], the pEC50 is > 7.00.
For `O=C(O)CCS(=O)(=O)N[C@H]1CC2=C(c3ccn(C(F)F)n3)[C@H](c3ccc(F)cc3Cl)N=C(c3nccs3)N2C1` [Example 10] the value was < 6.40; for `O=C(O)CCCS(=O)(=O)N[C@H]1CC2=C(c3ccn(C(F)F)n3)[C@H](c3ccc(F)cc3Cl)N=C(c3nccs3)N2C1` [Example 11], > 7.00; for `COC(=O)CS(=O)(=O)N[C@H]1CC2=C(c3ccn(C(F)F)n3)[C@H](c3ccc(F)cc3Cl)N=C(c3nccs3)N2C1` [Example 12], 6.40 to 7.00.
In the case of `COC(=O)CCCCS(=O)(=O)N[C@H]1CC2=C(c3ccn(C(F)F)n3)[C@H](c3ccc(F)cc3Cl)N=C(c3nccs3)N2C1` [Example 13], the pEC50 was 6.40 to 7.00.
Under `COC(=O)[C@H]1C[C@H](S(=O)(=O)N[C@H]2CC3=C(c4ccn(C(F)F)n4)[C@H](c4ccc(F)cc4Cl)N=C(c4nccs4)N3C2)C1` [Example 14] stands 6.40 to 7.00; under `COC(=O)[C@H]1C[C@@H](S(=O)(=O)N[C@H]2CC3=C(c4ccn(C(F)F)n4)[C@H](c4ccc(F)cc4Cl)N=C(c4nccs4)N3C2)C1` [Example 15], 6.40 to 7.00; under `O=C(O)[C@H]1C[C@H](S(=O)(=O)N[C@H]2CC3=C(c4ccn(C(F)F)n4)[C@H](c4ccc(F)cc4Cl)N=C(c4nccs4)N3C2)C1` [Example 16], < 6.40.
Under `O=C(O)[C@H]1C[C@@H](S(=O)(=O)N[C@H]2CC3=C(c4ccn(C(F)F)n4)[C@H](c4ccc(F)cc4Cl)N=C(c4nccs4)N3C2)C1` [Example 17] stands 6.40 to 7.00.
Regarding `O=C(O)CS(=O)(=O)N[C@H]1CC2=C(c3ccn(C(F)F)n3)[C@H](c3ccc(F)cc3Cl)N=C(c3nccs3)N2C1` [Example 18], the pEC50 was < 6.40.
For `O=C(O)CCCCS(=O)(=O)N[C@H]1CC2=C(c3ccn(C(F)F)n3)[C@H](c3ccc(F)cc3Cl)N=C(c3nccs3)N2C1` [Example 19] the value was 6.40 to 7.00.
Regarding `COC(=O)c1ccccc1CS(=O)(=O)N[C@H]1CC2=C(c3ccn(C(F)F)n3)[C@H](c3ccc(F)cc3Cl)N=C(c3nccs3)N2C1` [Example 22], the pEC50 was 6.40 to 7.00.
Under `O=C(O)c1ccccc1CS(=O)(=O)N[C@H]1CC2=C(c3ccn(C(F)F)n3)[C@H](c3ccc(F)cc3Cl)N=C(c3nccs3)N2C1` [Example 23] stands 6.40 to 7.00; under `COC(=O)c1ccc(Cl)c(S(=O)(=O)N[C@H]2CC3=C(c4ccn(C(F)F)n4)[C@H](c4ccc(F)cc4Cl)N=C(c4nccs4)N3C2)c1` [Example 24], 6.40 to 7.00; under `COC(=O)c1ccc(C)c(S(=O)(=O)N[C@H]2CC3=C(c4ccn(C(F)F)n4)[C@H](c4ccc(F)cc4Cl)N=C(c4nccs4)N3C2)c1` [Example 25], 6.40 to 7.00.
Turning to `COC(=O)c1cc(S(=O)(=O)N[C@H]2CC3=C(c4ccn(C(F)F)n4)[C@H](c4ccc(F)cc4Cl)N=C(c4nccs4)N3C2)c(C)cc1F` [Example 26], the pEC50 is < 6.40.
Under `O=C(O)c1ccc(Cl)c(S(=O)(=O)N[C@H]2CC3=C(c4ccn(C(F)F)n4)[C@H](c4ccc(F)cc4Cl)N=C(c4nccs4)N3C2)c1` [Example 27] stands 6.40 to 7.00; under `Cc1ccc(C(=O)O)cc1S(=O)(=O)N[C@H]1CC2=C(c3ccn(C(F)F)n3)[C@H](c3ccc(F)cc3Cl)N=C(c3nccs3)N2C1` [Example 28], 6.40 to 7.00.
Under `Cc1cc(F)c(C(=O)O)cc1S(=O)(=O)N[C@H]1CC2=C(c3ccn(C(F)F)n3)[C@H](c3ccc(F)cc3Cl)N=C(c3nccs3)N2C1` [Example 29] stands < 6.40; under `CCOC(=O)Cc1ccccc1S(=O)(=O)N[C@H]1CC2=C(c3ccn(C(F)F)n3)[C@H](c3ccc(F)cc3Cl)N=C(c3nccs3)N2C1` [Example 30], 6.40 to 7.00.
For `COC(=O)Cc1cccc(S(=O)(=O)N[C@H]2CC3=C(c4ccn(C(F)F)n4)[C@H](c4ccc(F)cc4Cl)N=C(c4nccs4)N3C2)c1` [Example 31] the value was > 7.00.
In the case of `O=C(O)Cc1ccccc1S(=O)(=O)N[C@H]1CC2=C(c3ccn(C(F)F)n3)[C@H](c3ccc(F)cc3Cl)N=C(c3nccs3)N2C1` [Example 32], the pEC50 was 6.40 to 7.00.
For `O=C(O)Cc1cccc(S(=O)(=O)N[C@H]2CC3=C(c4ccn(C(F)F)n4)[C@H](c4ccc(F)cc4Cl)N=C(c4nccs4)N3C2)c1` [Example 33] the value was 6.40 to 7.00; for `COC(=O)c1ccc(CS(=O)(=O)N[C@H]2CC3=C(c4ccn(C(F)F)n4)[C@H](c4ccc(F)cc4Cl)N=C(c4nccs4)N3C2)cc1` [Example 34], > 7.00; for `COC(=O)Cc1ccc(S(=O)(=O)N[C@H]2CC3=C(c4ccn(C(F)F)n4)[C@H](c4ccc(F)cc4Cl)N=C(c4nccs4)N3C2)cc1` [Example 35], > 7.00.
Under `O=C(O)c1ccc(CS(=O)(=O)N[C@H]2CC3=C(c4ccn(C(F)F)n4)[C@H](c4ccc(F)cc4Cl)N=C(c4nccs4)N3C2)cc1` [Example 36] stands > 7.00.
For `O=C(O)Cc1ccc(S(=O)(=O)N[C@H]2CC3=C(c4ccn(C(F)F)n4)[C@H](c4ccc(F)cc4Cl)N=C(c4nccs4)N3C2)cc1` [Example 37] the value was < 6.40; for `CCOC(=O)Cn1cc(S(=O)(=O)N[C@H]2CC3=C(c4ccn(C(F)F)n4)[C@H](c4ccc(F)cc4Cl)N=C(c4nccs4)N3C2)cn1` [Example 38], < 6.40; for `CCOC(=O)CN([C@H]1CC2=C(c3ccn(C(F)F)n3)[C@H](c3ccc(F)cc3Cl)N=C(c3nccs3)N2C1)S(=O)(=O)c1cnn(CC(=O)OCC)c1` [Example 39], < 6.40.
On to `O=C1NCCN1[C@H]1CC2=C(c3ccn(C(F)F)n3)[C@H](c3ccc(F)cc3Cl)N=C(c3nccs3)N2C1` [Example 40], for which the pEC50 is 6.40 to 7.00.
In the case of `C#CCN1CCN([C@H]2CC3=C(c4ccn(C(F)F)n4)[C@H](c4ccc(F)cc4Cl)N=C(c4nccs4)N3C2)C1=O` [Example 41], the pEC50 was 6.40 to 7.00.
`COC(=O)c1ccc(C#CCN2CCN([C@H]3CC4=C(c5ccn(C(F)F)n5)[C@H](c5ccc(F)cc5Cl)N=C(c5nccs5)N4C3)C2=O)cc1` [Example 42]: the pEC50 is < 6.40.
Under `O=C(O)c1ccc(C#CCN2CCN([C@H]3CC4=C(c5ccn(C(F)F)n5)[C@H](c5ccc(F)cc5Cl)N=C(c5nccs5)N4C3)C2=O)cc1` [Example 43] stands < 6.40; under `Cc1ccc(S(=O)(=O)N2CCN([C@H]3CC4=C(c5ccn(C(F)F)n5)[C@H](c5ccc(F)cc5Cl)N=C(c5nccs5)N4C3)CC2)cc1` [Example 44], < 6.40; under `Fc1ccc([C@@H]2N=C(c3nccs3)N3C[C@@H](N4CCNCC4)CC3=C2c2ccn(C(F)F)n2)c(Cl)c1` [Example 45], < 6.40.
Under `COC(=O)c1ccc(NC(=O)N2CCN([C@H]3CC4=C(c5ccn(C(F)F)n5)[C@H](c5ccc(F)cc5Cl)N=C(c5nccs5)N4C3)CC2)cc1` [Example 46] stands < 6.40.
With `O=C(O)c1ccc(NC(=O)N2CCN([C@H]3CC4=C(c5ccn(C(F)F)n5)[C@H](c5ccc(F)cc5Cl)N=C(c5nccs5)N4C3)CC2)cc1` [Example 47], the pEC50 is < 6.40.
Under `O=C1N(CC#Cc2ccccc2)CCN1[C@H]1CC2=C(c3ccn(C(F)F)n3)[C@H](c3ccc(F)cc3Cl)N=C(c3nccs3)N2C1` [Example 48] stands < 6.40; under `O=C(Nc1ccccc1)N1CCN([C@H]2CC3=C(c4ccn(C(F)F)n4)[C@H](c4ccc(F)cc4Cl)N=C(c4nccs4)N3C2)CC1` [Example 49], < 6.40.
As to `C=CS(=O)(=O)N[C@H]1CC2=C(c3ccn(C(F)F)n3)[C@H](c3ccc(F)cc3Cl)N=C(c3nccs3)N2C1` [Example 50], the pEC50 is 6.40 to 7.00.

The values are drawn from US11472808B2, “Substituted pyrrolo[1,2-c]pyrimidines as hepatitis B antiviral agents” (Enanta Pharmaceuticals, Inc., priority 2019, dated 2022).
